In general, Cmax refers to the highest concentration seen after dosing. Usually pIC50 stands for −log10 of the IC50, conventionally taken in molar units. For orientation: inhibition means the change of the read-out against control, counted positive when it falls.

Data set [1] can be described thus: Mouse pharmacokinetics (oral). It counts as in vivo. The settings on record: plasma, 50 mg/kg, ICR mouse, 5 mg/mL solution at 10 mL/kg; for AUC(0-inf): read-out: Mouse pharmacokinetics AUCinf; for half-life: read-out: Mouse pharmacokinetics t1/2 (converted). As for the experimental part: (§1) The weight of each ICR mouse and SD rat was properly 20˜30 g and 200˜300 g, and dosage of the compound of the present invention was 10 mL/kg for mice and 5 mL/kg for rats, and administered orally using Zonde. Blood collection was performed at 0.25, 0.5, 1, 2, 4, 6, 8 and 24 hours by orbital venous blood collection using a capillary tube coated with an anticoagulant, and then plasma was isolated using a centrifuge and kept in a freezer.
(§2) Plasma collected from animals and standard concentration material were pretreated using solid-phase extraction, and concentration of the compound of the invention was determined using a liquid chromatography mass spectrometer (Agilent HPLC, API-3000).
(§3) According to the resulting concentration value, the pharmacokinetics parameter was found using WinNonlin (Version 6.2) and half-life (t1/2), maximum blood concentration (Cmax) and infinite area under the curve (AUCinf) are shown in Tables 6 and 7 below.

Data set [2] in a line: Rat pharmacokinetics (oral). The class given is in vivo. As to conditions: plasma, 10 mg/kg, SD rat, 2 mg/mL solution at 5 mL/kg; for AUC(0-inf): read-out: Rat pharmacokinetics AUCinf; for half-life: read-out: Rat pharmacokinetics t1/2 (converted). As for the experimental part: as §1, §2, §3
For data set [3], the system named is histamine-induced mast cell migration (trachea). Kind of data set: Histamine-induced mast cell migration. The class given is in vivo, Balb/c mice. As to conditions: 20 mg/kg oral, 0.1 M histamine aerosol, 2 days. The procedure: Female, Balb/c mice (7 weeks old, 20±3 g) were purchased from OrientBio Co., Ltd.
The animals were housed under conditions of controlled temperature (23±3° C.), humidity (50±5%) and lighting with food and water available ad libitum.
Mice were dosed with either vehicle (20% cyclodextrin in second distilled water) or the compound by orally administration. The Compound (20 mg/kg) dissolved in a vehicle and administered orally at a volume of 10 mL/kg. After 15 minutes, mice were challenged by a 20 min aerosol inhalation of PBS (phosphate buffered saline) or 0.1 M histamine (dissolving in PBS). This process was repeated for 2 days. After a final challenge, the tracheae were cleared of blood via perfusion of PBS and tracheae were extracted, the tracheae were fixed in 10% (w/v) formaldehyde for subsequent paraffin cross-sectioning and toluidine blue staining. Total mast cells were calculated, and a mean was reported. (The Journal of Pharmacology and Experimental Therapeutics, 2004, 309, 404-413). Statistical analysis was analyzed using one-way ANOVA with Dunnett test. Values of p<0.05 were considered statistically significant.

In data set [4] the test system is histamine-induced itching, ICR mice. Kind of data set: Histamine-induced itching model in ICR mice. It counts as in vivo. As to conditions: 50 mg/kg oral, histamine 300 nmol intradermal, 20 min count. As for the experimental part:
Female, ICR mice (8 weeks old) were purchased from OrientBio Co., Ltd. The animals were housed under conditions of controlled temperature (23±3° C.), humidity (50±5%) and lighting with food and water available ad libitum.
The hair was clipped using clippers (8000AD, THRIVE) over the rostral part of the back 24 hours before the experiment under anesthesia with isoflurane. Histamine (300 nmol) was dissolved in saline and a volume of 40 μL injected intradermally into the rostral part of the back. Mice were dosed with either vehicle (20% cyclodextrin in second distilled water) or the compound by orally administration. The Compound (50 mg/kg) dissolved in a vehicle (20% cyclodextrin in second distilled water) and administered orally at a volume of 10 mL/kg.
Mice (n=10 per group) were divided into 3 groups (normal group, control group and experimental group). The animals were randomized for similar body weight distribution. A vehicle or the compound was administered 20 minutes before injection of histamine or saline. Immediately after intradermal injection, the animals were returned to an acrylic cage (approximately 30×30×30 cm, access production) composed of four cells, to which they had been acclimated for at least 1 hour before the experiment, for observation of itch responses. A camera (Samsung, VLUUNV30) was positioned above the mice to record their response. Itch was measured by blinded counting of the number of scratching in the 20 min period immediately after the intradermal injection. A number of scratching was defined as 3 or more individual rapid scratch movements with the hind paws around the injection site (J. Allergy Clin. Immunol. 2007, 19(1), 176-183). All data were analyzed by using Excel and Prism, and all values are expressed as the mean±S.E.M. The inhibitory effect of compounds is shown as a percentage of the maximal response to histamine (100% control group).
Statistical analysis was analyzed using one-way ANOVA with Dunnett test. Values of p<0.05 were considered statistically significant.

The test system of data set [5] is oxazolone-induced atopic dermatitis, Balb/c mice. Kind of data set: Oxazolone-induced atopic dermatitis model in Balb/c mice. The class given is in vivo. The settings on record: BID, oral, days 8-28. As for the experimental part:
Female, Balb/c mice (6 weeks old, 20±3 g) were purchased from OrientBio Co., Ltd. The animals were housed under conditions of controlled temperature (23±3° C.), humidity (50±5%) and lighting with food and water available ad libitum.
On the beginning day (day 1), mice were sensitized by the topical application of 50 μL of 1% oxazolone in acetone and olive oil (4:1 ratio) on the abdominal skin. On day 8, 10, 12, 15, 17, 19, 22, 24 and 26, 25 μL of 0.2% oxazolone was applied topically on the inner side of right ear of each mouse. Between days 8 and 28, the compound of the invention was administered orally (10 mL/kg) twice a day in the morning and afternoon, and on days 12, 19 and 27, the thickness of the right ear of the mouse was measured. On day 28, the ear tissue of the mouse was extracted, fixed in 10% formalin solution, and then a tissue slide was prepared, stained with H&E (hematoxylin & eosin), and then the thickness of the ear was observed (Journal of Investigative Dermatology, 2008, 128, 79-86). Statistical analysis was analyzed using one-way ANOVA with Dunnett test. Values of p<0.05 were considered statistically significant.

In data set [6] the target is human serotonin 3 receptor (human 5-HT3 receptor) (Homo sapiens (Human), UniProt P46098). Kind of data set: Binding affinity of human serotonin 3 receptor (performed at Cerep). The settings on record: for pIC50: read-out: Binding affinity (IC50) of human serotonin 3 receptor (h5-HT3R); for inhibition at 10 µM: read-out: % inhibition degree at 10 μM, human serotonin 3 receptor (h5-HT3R). As for the experimental part: The binding assays of the human serotonin 3 receptor for present invention were performed at Cerep (Poitiers, France), and the results of analysis are shown in Table 3.
Sequence of human serotonin 3 receptor (human 5-HT3 receptor) (P46098 24-478): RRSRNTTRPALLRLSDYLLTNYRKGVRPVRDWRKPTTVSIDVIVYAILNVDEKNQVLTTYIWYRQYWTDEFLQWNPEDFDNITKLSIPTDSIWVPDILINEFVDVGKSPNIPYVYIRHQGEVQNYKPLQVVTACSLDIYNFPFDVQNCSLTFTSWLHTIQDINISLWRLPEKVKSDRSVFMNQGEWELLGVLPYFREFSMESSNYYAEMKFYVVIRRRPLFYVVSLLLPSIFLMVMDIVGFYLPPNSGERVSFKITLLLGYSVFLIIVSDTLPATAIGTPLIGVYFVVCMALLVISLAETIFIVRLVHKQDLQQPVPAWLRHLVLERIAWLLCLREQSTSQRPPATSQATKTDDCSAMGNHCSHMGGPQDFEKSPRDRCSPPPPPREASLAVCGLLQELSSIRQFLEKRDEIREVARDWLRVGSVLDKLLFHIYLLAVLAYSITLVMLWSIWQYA

SMILES strings stand for the structures. pIC50: −log10 of the molar value. Bounds are passed on as bounds.

As for `CN1CCN(c2nc3ncc(Cl)cc3n3cnnc23)CC1` [Compound 4, 8-Chloro-4-(4-methylpiperazin-1-yl)pyrido[2,3-e][1,2,4]triazolo[4,3-a]pyrazine], in data set [1], the concentration peaked (Cmax) at 14900 ng/mL, the AUC(0-inf) was found to be 35600 ng·h/mL and the half-life was 133 min. Also, in data set [2], the concentration peaked (Cmax) at 1950 ng/mL, the AUC(0-inf) turned out to be 7740 ng·h/mL and the half-life was 113 min. Further, the “Mast cell migration (% change from control group)” value in data set [3] is reported as 70.3^1%. Also, the “Number of scratching (% changes from control group)” value in data set [4] is given as 94.3^1%. For the same compound, the “Ear epidermis thickness (% change from control group)” value in data set [5] (100 mg/kg) was determined as 47.2%.
For `Clc1cnc2nc(N3CCNCC3)c3nncn3c2c1` [Compound 7, 8-Chloro-4-(piperazin-1-yl)pyrido[2,3-e][1,2,4]triazolo[4,3-a]pyrazine], in data set [1], the highest level (Cmax) was 6570 ng/mL, the AUC(0-inf) came out at 16500 ng·h/mL and the half-life is 76.8 min. For the same compound, in data set [2], the highest level (Cmax) was 1330 ng/mL, the AUC(0-inf) came out at 3110 ng·h/mL and the half-life is 97.2 min. In data set [3], the “Mast cell migration (% change from control group)” value was 43.1^1%. In data set [4], the “Number of scratching (% changes from control group)” value is listed as 61.2^1%.
Consider `CNC1CN(c2nc3ncc(Cl)cc3n3cnnc23)C1` [Compound 18, 1-(8-Chloropyrido[2,3-e][1,2,4]triazolo[4,3-a]pyrazin-4-yl)-N-methylazetidin-3-amine], for which, in data set [1], the highest concentration (Cmax) worked out at 12300 ng/mL, the AUC(0-inf) was 23700 ng·h/mL and the half-life was 79.2 min. In addition, the pIC50 in data set [6] is 5.54. Moreover, in data set [2], the Cmax was 2590 ng/mL, the AUC(0-inf) worked out at 4560 ng·h/mL and the half-life was 62.4 min. For the same compound, the “Number of scratching (% changes from control group)” value in data set [4] was 84.3^1%.
Take `CNC1CN(c2nc3ncc(Br)cc3n3cnnc23)C1` [Compound 24, 1-(8-Bromopyrido[2,3-e][1,2,4]triazolo[4,3-a]pyrazin-4-yl)-N-methylazetidin-3-amine]: in data set [1], the peak level (Cmax) was 18900 ng/mL, the AUC(0-inf) was found to be 32200 ng·h/mL and the half-life was 57.6 min. Moreover, the pIC50 in data set [6] is 5.04. For the same compound, in data set [2], the Cmax was 2420 ng/mL, the AUC(0-inf) was 4510 ng·h/mL and the half-life is 78 min. In data set [3], the “Mast cell migration (% change from control group)” value is reported as 60.0^1%. Besides, the “Number of scratching (% changes from control group)” value in data set [4] is 93.6^1%. The “Ear epidermis thickness (% change from control group)” value in data set [5] (100 mg/kg) is on record as 51.2^1%.
Take `CNC1CN(c2nc3ncc(I)cc3n3cnnc23)C1` [Compound 48, 1-(8-Iodopyrido[2,3-e][1,2,4]triazolo[4,3-a]pyrazin-4-yl)-N-methylazetidin-3-amine]: in data set [1], the peak level (Cmax) was 10200 ng/mL, the AUC(0-inf) is 21600 ng·h/mL and the half-life is 87.6 min. In data set [6], the inhibition at 10 µM worked out at 28% and the pIC50 is less than 5.00. Also, the “Number of scratching (% changes from control group)” value in data set [4] is 67.3^1%.
For the compound `CNC1CN(c2nc3ncc(Br)cc3n3nnnc23)C1` [Compound 95, 1-(8-Bromopyrido[2,3-e]tetrazolo[1,5-a]pyrazin-4-yl)-N-methylazetidin-3-amine], in data set [1], the peak level (Cmax) was 15400 ng/mL, the AUC(0-inf) was found to be 98300 ng·h/mL and the half-life was 242 min. Besides, in data set [6], the inhibition at 10 µM was found to be 25% and the pIC50 is less than 5.00. Moreover, the “Number of scratching (% changes from control group)” value in data set [4] was 98.2^1%. Besides, the “Ear epidermis thickness (% change from control group)” value in data set [5] (50 mg/kg) worked out at 34.9%.

The values above are taken from patent publication US9586959B2, “Substituted tricyclic heterocycles as histamine 4 receptor inhibitors” (C&C RESEARCH LABORATORIES, priority 2011, dated 2017).
